In US20240109853A1 (Shanghai Yao Yuan Biotechnology Co., Ltd., priority 2020, published 2024):

Assays:
ALPK1 = ALPK1 (Homo sapiens (Human), UniProt Q96QP1); test: ALPK1 in vitro kinase assay (HTRF of TIFA phosphorylation); type: biochemical
[1] = test system: ALPK1-dependent NFκB reporter gene activation in HEK293 cells stably expressing an NF-kB reporter (G9 cells); test: NFκB gene reporter alkaline phosphatase assay; type: cell-based; conditions: Homo sapiens, HEK293; read-out: NFkB assay IC50
From the text: In embodiments, a compound of Formula I, or a subembodiment described herein, is an inhibitor of ALPK1 as measured, for example, in an in vitro kinase assay, or an assay designed to measure the activation of downstream targets of ALPK1 pathway activation, for example NFkB transcriptional activation and the secretion of proinflammatory cytokines and chemokines, such as IL-8, which is also referred to as CXCL-8. In general, the computer program XL fit was used for data analysis, including non-linear regression analysis. The half maximal inhibitory concentration (IC50) was used as the measure of a compound's effectiveness in the assays. IC50 values were determined using the following logistic equation Y=min+(max−min)/(1+(X/IC50^−hillslpoe), where Y is the value at the compound concentration, X. The concentration response curve fitting was conducted using GraphPad Prism version 6.00 software.
An alkaline phosphatase reporter assay system was used to measure inhibition of ALPK1-dependent NFκB reporter gene activation. Briefly, HEK293 cells stably expressing an NF-kB reporter (referred to herein as “G9 cells”) were maintained in DMEM as described above. For the assay, cells were seeded into 96-well plates at a density of 10,000 cells/well in Freestyle™ 293 Expression Medium (ThermoFisher), and allowed to attach overnight. Cells were pretreated with serially diluted compounds for 30 min and then stimulated with D-glycero-D-manno-6-fluoro-heptose-1β-S-ADP. […] NFkB gene activation was detected using the chromogenic substrate, para-nitrophenyl phosphate (pNPP) according to the manufacturer's protocols (pNPP Phosphatase Assay, Beyotime Biotechnology).

Sequence of ALPK1 (Q96QP1 whole entry): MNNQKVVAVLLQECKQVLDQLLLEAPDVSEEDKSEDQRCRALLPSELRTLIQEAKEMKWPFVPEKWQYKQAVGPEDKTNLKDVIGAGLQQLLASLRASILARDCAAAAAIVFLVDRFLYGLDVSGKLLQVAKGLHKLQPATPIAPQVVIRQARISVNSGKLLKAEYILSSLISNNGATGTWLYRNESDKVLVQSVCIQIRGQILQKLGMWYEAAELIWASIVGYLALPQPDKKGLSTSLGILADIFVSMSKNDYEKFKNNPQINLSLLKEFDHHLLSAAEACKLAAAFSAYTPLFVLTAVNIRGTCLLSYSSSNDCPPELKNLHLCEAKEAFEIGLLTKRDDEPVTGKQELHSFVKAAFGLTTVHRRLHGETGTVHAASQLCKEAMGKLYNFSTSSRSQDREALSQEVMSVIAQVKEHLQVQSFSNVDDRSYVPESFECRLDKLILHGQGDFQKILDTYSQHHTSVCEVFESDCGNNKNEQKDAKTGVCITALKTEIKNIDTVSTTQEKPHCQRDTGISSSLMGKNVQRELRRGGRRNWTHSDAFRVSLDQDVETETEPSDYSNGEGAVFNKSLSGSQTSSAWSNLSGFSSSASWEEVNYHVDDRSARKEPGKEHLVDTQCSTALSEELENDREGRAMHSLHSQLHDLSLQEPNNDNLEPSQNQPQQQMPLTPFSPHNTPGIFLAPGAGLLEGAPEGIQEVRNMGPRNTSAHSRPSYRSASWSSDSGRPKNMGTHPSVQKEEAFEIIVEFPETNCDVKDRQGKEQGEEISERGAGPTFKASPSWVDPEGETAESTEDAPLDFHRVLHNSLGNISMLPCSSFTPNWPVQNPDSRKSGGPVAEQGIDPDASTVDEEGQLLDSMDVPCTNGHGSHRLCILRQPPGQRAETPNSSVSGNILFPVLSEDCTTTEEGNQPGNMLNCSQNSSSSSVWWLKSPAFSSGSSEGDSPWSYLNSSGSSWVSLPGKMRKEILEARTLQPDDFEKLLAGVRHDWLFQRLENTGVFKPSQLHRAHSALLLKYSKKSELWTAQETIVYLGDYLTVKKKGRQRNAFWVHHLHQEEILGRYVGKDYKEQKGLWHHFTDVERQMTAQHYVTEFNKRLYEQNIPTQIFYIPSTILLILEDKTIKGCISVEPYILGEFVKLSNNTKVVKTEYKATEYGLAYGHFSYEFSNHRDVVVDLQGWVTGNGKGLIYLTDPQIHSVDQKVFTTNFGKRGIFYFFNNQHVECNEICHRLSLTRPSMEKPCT

Compound | IC50 (ALPK1) [nM] | IC50 [1] [nM]
C#C[C@](C)(c1ccc(Cl)cc1)c1csc(NC(=O)NC[C@@H](O)CO)n1 [Example A301, 1-(4-(2-(4-chlorophenyl)but-3-yn-2-yl)thiazol-2-yl)-3-((R)-2,3-dihydroxypropyl)urea] | 354 | 2220
O=C(Nc1nc(C2(c3ccc(Br)cc3)CCCC2)cs1)N1CC(c2ccc(N3CCNCC3)c(F)c2)C1 [Example A236, N-(4-(1-(4-bromophenyl)cyclopent-yl)thiazol-2-yl)-3-(3-fluoro-4-(piperazin-1-yl)phenyl)azetidine-1-carboxamide] | 13 | 4500
COc1ncc(CNC(=O)Nc2nc(C(C)(C)c3ccc(Br)cc3)cs2)cn1 [Example A080, 1-(4-(2-(4-bromophenyl)propan-2-yl)thiazol-2-yl)-3-((2-methoxypyrimidin-5-yl)methyl)urea] | 172 | 13300
CC(C)(c1ccc(Br)cc1)c1csc(NC(=O)NCc2cnc(N3CCC(O)CC3)nc2)n1 [Example A082, 1-(4-(2-(4-bromophenyl)propan-2-yl)thiazol-2-yl)-3-((2-(4-hydroxypiperidin-1-yl)pyrimidin-5-yl)methyl)urea] | 125 | 6150
CN1CCN(Cc2ccc(CNC(=O)Nc3nc(C(C)(C)c4ccc(Br)cc4)cs3)cc2)CC1 [Example A016, 1-(4-(2-(4-bromophenyl)propan-2-yl)thiazol-2-yl)-3-(4-((4-methylpiperazin-1-yl)methyl)benzyl)urea] | 27 | 2340
CC(NC(=O)Nc1nc(C(C)(C)c2ccc(Br)cc2)cs1)c1ccc(N2CCNCC2)cc1 (centres unmarked) [Example A073, 1-(4-(2-(4-bromophenyl)propan-2-yl)thiazol-2-yl)-3-(1-(4-(piperazin-1-yl)phenyl)ethyl)urea] | 85 | 2790
CC(C)(c1ccc(Br)cc1)c1csc(NC(=O)NCc2ccnc(N3CCNCC3)c2)n1 [Example A181, 1-(4-(2-(4-bromophenyl)propan-2-yl)thiazol-2-yl)-3-((2-(piperazin-1-yl)pyridin-4-yl)methyl)urea] | 131 | 1520
CC(C)(c1ccc(Br)cc1)c1csc(NC(=O)NCc2ccc(F)c(Cl)c2)n1 [Example A017, 1-(4-(2-(4-bromophenyl)propan-2-yl)thiazol-2-yl)-3-(3-chloro-4-fluorobenzyl)urea] | 204 | 970
CC(C)(c1ccc(Br)cc1)c1csc(NC(=O)NCc2ccc(OCCCN3CCNCC3)cc2)n1 [Example A035, 1-(4-(2-(4-bromophenyl)propan-2-yl)thiazol-2-yl)-3-(4-(3-(piperazin-1-yl)propoxy)benzyl)urea] | 52 | 2030
COc1ccc(C(C)(C)c2csc(NC(=O)NCc3cnc(N4CCC(C(N)=O)CC4)nc3)n2)cc1 [Example A215, 1-(5-((3-(4-(2-(4-methoxyphenyl)propan-2-yl)thiazol-2-yl)ureido)methyl)pyrimi-din-2-yl)piperidine-4-carboxamide] | 150 | 2210
CC(C)(c1ccc(Br)cc1)c1csc(NC(=O)NCc2ccc(N3CCNCC3)c(Cl)c2)n1 [Example A219, 1-(4-(2-(4-bromophenyl)propan-2-yl)thiazol-2-yl)-3-(3-chloro-4-(piperazin-1-yl)benzyl)urea] | 46 | 2730
C#CC(C)(c1ccc(Br)cc1)c1csc(NC(N)=O)n1 (stereo in doubt) [Example A164, (R)-1-(4-(2-(4-bromophenyl)but-3-yn-2-yl)thiazol-2-yl)urea] | 17 | 590
C#CC(C)(c1ccc(Cl)cc1)c1nc(NC(=O)NCCO)sc1F (centres unmarked) [Example A279, 1-(4-(2-(4-chlorophenyl)but-3-yn-2-yl)-5-fluorothiazol-2-yl)-3-(2-hydroxyethyl)urea] | 222 | 4230
CC(C)(c1ccc(Br)cc1)c1csc(NC(=O)NCc2ccc(N3CCC(N)C3)nc2)n1 (centres unmarked) [Example A189, 1-((6-(3-aminopyrrolidin-1-yl)pyridin-3-yl)methyl)-3-(4-(2-(4-bromophenyl)propan-2-yl)thiazol-2-yl)urea] | 41 | 2310
CC(C)(c1ccc(Br)cc1)c1csc(NC(=O)NCc2ccc(NCCO)cc2)n1 [Example A108, 1-(4-(2-(4-bromophenyl)propan-2-yl)thiazol-2-yl)-3-(4-((2-hydroxyethyl)amino)ben-zyl)urea] | 244 | 820
CC(C)(c1ccc(Br)cc1)c1csc(NC(=O)NCc2ccnc(N3CCNCC3)n2)n1 [Example A090, 1-(4-(2-(4-bromophenyl)propan-2-yl)thiazol-2-yl)-3-((2-(piperazin-1-yl)pyrimidin-4-yl)methyl)urea] | 178 | 1110
Cc1cc(N2CCNCC2)ccc1CNC(=O)Nc1nc(C(C)(C)c2ccc(Br)cc2)cs1 [Example A051, 1-(4-(2-(4-bromophenyl)propan-2-yl)thiazol-2-yl)-3-(2-methyl-4-(piperazin-1-yl)benzyl)urea] | 125 | 290
O=C(NCc1ccc(N2CCNCC2)cc1)Nc1nc(C2(c3ccc(Br)cc3)CCCC2)cs1 [Example A045, 1-(4-(1-(4-bromophenyl)cyclopentyl)thiazol-2-yl)-3-(4-(piperazin-1-yl)benzyl)urea] | 24 | 1070
C#C[C@@](C)(c1ccc(Cl)cc1)c1csc(NC(=O)NCC2(O)CNC2)n1 (stereo in doubt) [Example A287, 1-(4-(2-(4-chlorophenyl)but-3-yn-2-yl)thiazol-2-yl)-3-((3-hydroxyazetidin-3-yl)methyl)urea] | 130 | 4400
COc1ccc(C(C)(C)c2csc(NC(=O)NCc3cc(F)c(N4CCC(N)C4)c(F)c3)n2)cc1 (centres unmarked) [Example A201, 1-(4-(3-aminopyrrolidin-1-yl)-3,5-difluorobenzyl)-3-(4-(2-(4-methoxyphenyl)propan-2-yl)thiazol-2-yl)urea] | 25 | 530
CCNC(=O)Nc1nc(C(C)(C)c2ccc(Br)cc2)cs1 [Example A241, 1-(4-(2-(4-bromophenyl)propan-2-yl)thiazol-2-yl)-3-ethylurea] | 98 | 3410
COc1ccc(C(C)(C)c2csc(NC(=O)NCCCN(C)C)n2)cc1 [Example A145, 1-(3-(dimethylamino)propyl)-3-(4-(2-(4-methoxyphenyl)propan-2-yl)thiazol-2-yl)urea] | 216 | 4490
COc1ccc(C(C)(C)c2csc(NC(=O)NCCCN3CCN(C)CC3)n2)cc1 [Example A142, 1-(4-(2-(4-methoxyphenyl)propan-2-yl)thiazol-2-yl)-3-(3-(4-methylpiperazin-1-yl)propyl)urea] | 180 | 1330
COc1ccc(C(C)(C)c2csc(NC(=O)NCc3ccc(C(=O)NC4CCNCC4)cc3)n2)cc1 [Example A042, 4-((3-(4-(2-(4-methoxyphenyl)propan-2-yl)thiazol-2-yl)ureido)methyl)-N-(piperidin-4-yl)benzamide] | 15 | 1000
COc1ccc(C(C)(C)c2csc(NC(=O)NCc3ccc(C4CCNCC4)c(F)c3)n2)cc1 [Example A224, 1-(3-fluoro-4-(piperidin-4-yl)benzyl)-3-(4-(2-(4-methoxyphenyl)propan-2-yl)thiazol-2-yl)urea] | 21 | 730
